# Assay results published in paper PMC2330188 (Acta Crystallographica Section F: Structural Biology and …, 2007).
# Molecular target: 5-formyltetrahydrofolate cyclo-ligase (BA4489) (Bacillus anthracis, UniProt A0A6L8PZ12)
# Sequence (A0A6L8PZ12 2-192 limits assumed): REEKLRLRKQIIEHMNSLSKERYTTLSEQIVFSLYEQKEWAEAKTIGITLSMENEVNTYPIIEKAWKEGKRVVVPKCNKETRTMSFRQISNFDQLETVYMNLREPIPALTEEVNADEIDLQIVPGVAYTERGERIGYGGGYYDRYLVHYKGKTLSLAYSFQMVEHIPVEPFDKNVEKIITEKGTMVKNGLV
smiles,measurement,value
O=P(O)(O)O [phosphate],"X-ray crystal structure, 1.6 Å",hydrolysed to ADP and inorganic phosphate
